Measurements taken from the NIST ThermoML archive (doi:10.1016/j.jct.2012.11.004).
± gives the expanded uncertainty stated by the source.

Assay: mn = molality of the nth substance listed, in mol/kg
Conditions: 101 kPa, Liquid; for mass density: Vibrating tube method; for speed of sound: Pulse-echo method

O=S(=O)([O-])C(F)(F)F.[Na+] [sodium trifluoromethanesulfonate] + CC(=O)N(C)C
Conditions | mass density, 283.15 K [kg/m3] | mass density, 293.15 K [kg/m3] | mass density, 298.15 K [kg/m3] | mass density, 303.15 K [kg/m3] | mass density, 313.15 K [kg/m3] | mass density, 323.15 K [kg/m3] | mass density, 333.15 K [kg/m3] | speed of sound, 298.15 K [m/s]
m1 = 0.03102 | 953.06 ± 0.3 | 943.85 ± 0.3 | 939.25 ± 0.3 | 934.64 ± 0.3 | 925.39 ± 0.31 | 916.13 ± 0.31 | 906.83 ± 0.31 | –
m1 = 0.04251 | 954.18 ± 0.31 | 944.96 ± 0.3 | 940.36 ± 0.3 | 935.76 ± 0.31 | 926.52 ± 0.31 | 917.26 ± 0.31 | 907.96 ± 0.31 | –
m1 = 0.05604 | 955.5 ± 0.31 | 946.28 ± 0.31 | 941.68 ± 0.31 | 937.08 ± 0.31 | 927.84 ± 0.31 | 918.59 ± 0.31 | 909.29 ± 0.31 | 1456 ± 1.2
m1 = 0.07266 | 957.11 ± 0.31 | 947.9 ± 0.31 | 943.3 ± 0.31 | 938.69 ± 0.31 | 929.46 ± 0.31 | 920.21 ± 0.31 | 910.92 ± 0.31 | 1455.8 ± 1.3
m1 = 0.08844 | 958.64 ± 0.31 | 949.43 ± 0.31 | 944.83 ± 0.31 | 940.23 ± 0.31 | 931 ± 0.31 | 921.75 ± 0.31 | 912.46 ± 0.31 | 1455.7 ± 1.3
m1 = 0.1113 | 960.86 ± 0.31 | 951.66 ± 0.31 | 947.06 ± 0.31 | 942.45 ± 0.31 | 933.22 ± 0.31 | 923.98 ± 0.31 | 914.7 ± 0.31 | 1455.5 ± 1.3
m1 = 0.1446 | 964.1 ± 0.32 | 954.89 ± 0.31 | 950.29 ± 0.31 | 945.68 ± 0.31 | 936.46 ± 0.32 | 927.21 ± 0.31 | 917.94 ± 0.32 | 1455.2 ± 1.3
m1 = 0.174 | 966.97 ± 0.32 | 957.75 ± 0.32 | 953.15 ± 0.32 | 948.54 ± 0.32 | 939.35 ± 0.32 | 930.09 ± 0.32 | 920.85 ± 0.32 | 1455 ± 1.3
m1 = 0.2018 | 969.69 ± 0.32 | 960.49 ± 0.32 | 955.89 ± 0.32 | 951.28 ± 0.32 | 942.06 ± 0.32 | 932.83 ± 0.32 | 923.57 ± 0.32 | 1454.7 ± 1.3
m1 = 0.2378 | 973.2 ± 0.33 | 964 ± 0.33 | 959.39 ± 0.33 | 954.79 ± 0.33 | 945.58 ± 0.33 | 936.36 ± 0.33 | 927.11 ± 0.33 | 1454.3 ± 1.3
m1 = 0.2675 | 976.18 ± 0.33 | 966.97 ± 0.33 | 962.37 ± 0.33 | 957.77 ± 0.33 | 948.55 ± 0.33 | 939.32 ± 0.33 | 930.07 ± 0.33 | 1453.9 ± 1.3

O=S(=O)([O-])C(F)(F)F.[Na+] [sodium trifluoromethanesulfonate] + CN(C)C=O
Conditions | mass density, 283.15 K [kg/m3] | mass density, 293.15 K [kg/m3] | mass density, 298.15 K [kg/m3] | mass density, 303.15 K [kg/m3] | mass density, 313.15 K [kg/m3] | mass density, 323.15 K [kg/m3] | mass density, 333.15 K [kg/m3] | speed of sound, 298.15 K [m/s]
m1 = 0.03242 | 961.31 ± 0.31 | 951.8 ± 0.31 | 947.04 ± 0.31 | 942.26 ± 0.31 | 932.69 ± 0.31 | 923.07 ± 0.31 | 913.39 ± 0.31 | –
m1 = 0.04301 | 962.37 ± 0.31 | 952.86 ± 0.31 | 948.1 ± 0.31 | 943.33 ± 0.31 | 933.75 ± 0.31 | 924.13 ± 0.31 | 914.46 ± 0.31 | –
m1 = 0.05649 | 963.72 ± 0.31 | 954.21 ± 0.31 | 949.44 ± 0.31 | 944.67 ± 0.31 | 935.1 ± 0.31 | 925.48 ± 0.31 | 915.81 ± 0.31 | –
m1 = 0.07002 | 965.07 ± 0.31 | 955.56 ± 0.31 | 950.8 ± 0.31 | 946.03 ± 0.31 | 936.46 ± 0.31 | 926.83 ± 0.31 | 917.16 ± 0.31 | 1456.8 ± 1.3
m1 = 0.08981 | 967.04 ± 0.31 | 957.54 ± 0.31 | 952.77 ± 0.31 | 948 ± 0.31 | 938.43 ± 0.31 | 928.81 ± 0.31 | 919.14 ± 0.31 | 1456.7 ± 1.3
m1 = 0.1114 | 969.21 ± 0.32 | 959.69 ± 0.32 | 954.93 ± 0.32 | 950.16 ± 0.32 | 940.6 ± 0.32 | 930.98 ± 0.32 | 921.31 ± 0.32 | 1456.6 ± 1.3
m1 = 0.1445 | 972.54 ± 0.32 | 963.02 ± 0.32 | 958.25 ± 0.32 | 953.48 ± 0.32 | 943.91 ± 0.32 | 934.29 ± 0.32 | 924.63 ± 0.32 | 1456.4 ± 1.3
m1 = 0.1748 | 975.61 ± 0.32 | 966.08 ± 0.32 | 961.32 ± 0.32 | 956.54 ± 0.32 | 946.97 ± 0.32 | 937.35 ± 0.32 | 927.69 ± 0.32 | 1456.2 ± 1.3
m1 = 0.2026 | 978.41 ± 0.33 | 968.91 ± 0.33 | 964.12 ± 0.33 | 959.34 ± 0.33 | 949.76 ± 0.32 | 940.13 ± 0.32 | 930.5 ± 0.32 | 1456.1 ± 1.3
m1 = 0.239 | 982.12 ± 0.33 | 972.58 ± 0.33 | 967.82 ± 0.33 | 963.03 ± 0.33 | 953.44 ± 0.33 | 943.82 ± 0.33 | 934.15 ± 0.33 | 1455.9 ± 1.3
m1 = 0.2681 | 985.09 ± 0.33 | 975.55 ± 0.33 | 970.79 ± 0.33 | 966.01 ± 0.33 | 956.41 ± 0.33 | 946.79 ± 0.33 | 937.1 ± 0.33 | 1455.7 ± 1.3
